Experimental findings from the RepoRT retention time repository are described below.

The nature of this data set: Agilent ZORBAX 300 SB-C18, 150 × 1 mm, 3.5 µm; A: water + 0.01% heptafluorobutyric acid; B: acetonitrile + 0.01% heptafluorobutyric acid; gradient (min/%B) 0/0 100/90. The following applies: stereoisomer not certain.
On to `c1cnccn1`, for which the LC retention time worked out at 5.91 min.

Consider `CC(C)N(C)C(C)(C)C`, for which the LC retention time was 7.1 min.

Regarding `c1coc(-c2c3c(nc4ccc5ccccc5c24)CCCC3)c1`, the LC retention time was found to be 13.8 min. Then `Nc1cc(N)[nH]c(=S)n1`, with 6.42 min; and `Nc1ccc2ncn(Cc3ccccc3)c(=O)c2c1`, with 9.74 min; and `Cc1cccc2c1N(C)C(=O)C2=O`, with 10.1 min. As to `Cc1ccccn1`, the LC retention time came to 6.01 min. Then `CC1(C)CC(NCC(=O)NC2CC(C)(C)NC(C)(C)C2)CC(C)(C)N1`, with 7.71 min; and `NCC(=O)c1ccccc1`, with 7.35 min.

Regarding `O=C(O)CCCC(=O)Nc1ccccc1`, the LC retention time turned out to be 8.72 min. Then `Cc1ccc(N2C(=O)NC(=O)C(=Cc3cc(C)n(-c4ccccc4)c3C)C2=O)cc1`, with 15 min; and `CCCCCCCCCCNC(=S)Nc1ccccc1`, with 19.6 min. Then `Cc1ccc(C)n1-c1cccc(C(=O)O)c1`, with 12.9 min; and `O=C(CN1CCc2ccccc2C1)NC1CCCC1`, with 8.99 min; and `CCCCCCCC(N)=O`, with 11 min. As to `NC(CCC(=O)OCc1ccccc1)C(=O)O` (configuration not stated), the LC retention time worked out at 8.38 min.

For the molecule `Cc1cccc(C(O)(C(=O)NN(C(=O)Nc2ccccc2)c2ccccc2)c2cccc(C)c2)c1`, the LC retention time was 16.3 min.

As for `O=C(O)CCC(=O)Nc1ccc(Cc2ccc(NC(=O)CCC(=O)O)cc2)cc1`, the LC retention time stood at 9.35 min. Then `Cc1ccccc1N1C(=O)NC(=O)C(=Cc2cccn2C)C1=O`, with 10.9 min; and `CC(C)NCCNC(C)C`, with 7.16 min. Then `Nc1cc(C(=O)N2CCCCC2)cc(C(=O)N2CCCCC2)c1`, with 9.88 min; and `CC(=O)NC1CCC2C3CC=C4CC(OC(C)=O)CCC4(C)C3CCC12C` (configuration not stated), with 16.7 min. Then `Nc1ccncn1`, with 3.44 min. With `CNCCCCCCN(C)CCCCCCNC`, the LC retention time was 7.6 min. The same measure for `CCN(C(C)C)C(C)C`: 7.51 min; for `CN(C)CCCOc1nn(Cc2ccccc2)c2ccccc12`: 11.2 min; for `c1ccc2c(c1)ccc1cccnc12`: 12.7 min. The same measure for `Cc1ccc(C(=O)NC(C)c2ccc(O)cc2)cc1` (configuration not stated): 11.1 min; for `CCCCC1CCC(C(=O)NCC2(N(C)C)CCCCC2)CC1` (configuration not stated): 12.4 min; for `Cc1ccc(NC(=S)NC2CC(C)(C)NC(C)(C)C2)cc1`: 9.5 min. Then `CC(C)C(C)N` (configuration not stated), with 6.98 min.

`O=c1ccoc2ccccc12`: the LC retention time was 9.31 min.

For the molecule `Cc1cc(C)nc(SCc2nc3ccccc3nc2C)n1`, the LC retention time was determined as 13.2 min. For the molecule `COC(=O)CCNC(C)Cc1ccccc1` (configuration not stated), the LC retention time was determined as 8.9 min. Then `CC(Nc1ccc2ccccc2c1)C(=O)NN=Cc1c2ccccc2cc2ccccc12` (configuration not stated), with 17.5 min; and `Cc1ccc2cc(-c3cccs3)[nH]c2c1`, with 16.4 min; and `CC1C(=O)CC[N+](C)(C)C1C` (configuration not stated), with 7.63 min. In the case of `Cc1[nH]c2c(c1C)C(=O)CCC2`, the LC retention time was 8.94 min. Turning to `CNCCN`, the LC retention time turned out to be 6.51 min.

As for `O=c1cc[nH]cc1`, the LC retention time amounted to 4.89 min. The same measure for `Cc1cccc(-n2c(C)nc3ccccc3c2=O)c1`: 11.9 min. The same measure for `O=C1CCNc2cc3ccccc3cc21`: 12.1 min; for `Cc1ccc(NC(=O)COc2ccc(-c3ccccc3)cc2)cc1`: 17.1 min; for `C1CN(CCN2CCOCC2)CCO1`: 6.81 min. Then `CC(=O)NC(Cc1ccc(O)cc1)C(N)=O` (configuration not stated), with 6.07 min; and `Nc1ccc(Cc2ccncc2)cc1`, with 8.71 min; and `CCCC[N+]1(CCCC)CC[N+](CCCC)(CCCC)CC1`, with 9.16 min. Consider `Cc1cc(C(=O)O)nc2ccccc12`, for which the LC retention time was 5.5 min. The same measure for `CC(=O)NCCC1CCCCN1` (configuration not stated): 6.55 min; for `Nc1ccnc2ccccc12`: 7.32 min.

For the molecule `c1ccc(-n2ncc(-c3nn[nH]n3)n2)cc1`, the LC retention time is 10.5 min.

On to `OCCCc1cn(-c2ccccc2)c2ccccc12`, for which the LC retention time was 14.8 min. Turning to `Nc1ccccc1C(=O)N1CCNC(=O)C1`, the LC retention time came to 6.83 min. With `S=C(Nc1ccccc1)N1CCCCC1`, the LC retention time stood at 12.3 min. Regarding `CNc1ccncc1`, the LC retention time came out at 6.54 min. `O=C1OC(c2c[nH]c3ccccc23)c2ccccc21` (configuration not stated): the LC retention time amounted to 12.4 min. For `CN1C(=O)CC(N2CCN(C(=O)CN3CCCC3)CC2)C1=O` (configuration not stated), the LC retention time was 7.12 min. The same measure for `Cc1nccnc1C`: 7.59 min. Then `C=C(C)C1CCC2=CC(=O)CC(C)C2(C)C1` (configuration not stated), with 17.1 min. The same measure for `O=C1CCCN1CP(=O)(O)CN1CCCC1=O`: 1.46 min. On to `Cn1c(-c2c(-c3ccc4ccccc4n3)cnc3ccccc23)nc2ccccc21`, for which the LC retention time turned out to be 12.3 min. For the molecule `CC(C)NC(=O)c1ccc2ccccc2n1`, the LC retention time was 13.1 min. The same measure for `Cn1ccnc1`: 3.76 min; for `NC1CCCC1`: 6.51 min; for `CC(=NNC(=O)CNC(=O)C(c1ccccc1)c1ccccc1)c1ccc(N(C)C)cc1`: 13.9 min. The same measure for `O=C(Nc1ccc(Nc2ccccc2)cc1)C(c1ccccc1)c1ccccc1`: 17.1 min; for `Cc1ccc(-n2ccnc2)cc1`: 8.52 min; for `CCCCN(C)C`: 7.03 min.

For `Cc1cccc(C(=O)NNC(=O)c2ccccc2C(=O)c2ccccc2)c1`, the LC retention time came to 13.3 min.

On to `CC(C)(C)NC(=S)NCc1ccccc1`, for which the LC retention time was 13.4 min.

Regarding `CC(=O)c1ccc2c(c1)N(CCCN(C)C)c1ccccc1S2`, the LC retention time is 11.1 min. Regarding `Cc1cccc(C)c1NC1=NCCCS1`, the LC retention time was 9.58 min.

`CC1(C)SC2C(NC(=O)C(N)c3ccc(O)cc3)C(=O)N2C1C(=O)O` (configuration not stated): the LC retention time came out at 7.52 min. The same measure for `CCn1c(-c2ccccc2)csc1=Nc1ccc(C)c(C)c1`: 12.5 min; for `CCN(CC)CCOc1ccccc1OC`: 8.83 min. The same measure for `C=CCC1(C(C)CCC)C(=O)NC(=O)NC1=O` (configuration not stated): 11.4 min; for `C=CCC1NC(C)(C)Cc2ccccc21` (configuration not stated): 9 min. As for `Nc1ncnc2ccccc12`, the LC retention time is 6.84 min.

With `COC(=O)c1ccc2ccccc2n1`, the LC retention time is 10.4 min. The same measure for `Cc1c(N)cccc1N`: 6.51 min. The same measure for `COc1ccc(N2C(=O)CC(C3CCCO3)C2=O)cc1` (configuration not stated): 10.7 min. The same measure for `Cc1ccc2cccc(SC(c3ccccc3)c3ccccc3)c2n1`: 17.5 min.
